Assay results as given in ChEMBL document CHEMBL1909046, “DrugMatrix in vitro pharmacology data”.

How the values were obtained:
Acetylcholinesterase = Acetylcholinesterase (Homo sapiens, UniProt P22303); test: DRUGMATRIX: Acetylcholinesterase enzyme inhibition (substrate: acetylthiocholine); type: cell-based, HEK293; conditions: hek293; Not Active = under 50% inhibition at 10 µM
[1] = DRUGMATRIX: Phosphodiesterase PDE3 enzyme inhibition (substrate: [3H]cAMP + cAMP); type: tissue-based, Homo sapiens; conditions: platelet; Not Active = under 50% inhibition at 10 µM
Cytochrome P450 2E1 = Cytochrome P450 2E1 (Homo sapiens, UniProt P05181); conditions: bti-tn-5b1-4; note: in other assays of this panel Not Active means under 50% inhibition at 10 µM
Sequence of Cytochrome P450 2E1 (P05181 whole entry): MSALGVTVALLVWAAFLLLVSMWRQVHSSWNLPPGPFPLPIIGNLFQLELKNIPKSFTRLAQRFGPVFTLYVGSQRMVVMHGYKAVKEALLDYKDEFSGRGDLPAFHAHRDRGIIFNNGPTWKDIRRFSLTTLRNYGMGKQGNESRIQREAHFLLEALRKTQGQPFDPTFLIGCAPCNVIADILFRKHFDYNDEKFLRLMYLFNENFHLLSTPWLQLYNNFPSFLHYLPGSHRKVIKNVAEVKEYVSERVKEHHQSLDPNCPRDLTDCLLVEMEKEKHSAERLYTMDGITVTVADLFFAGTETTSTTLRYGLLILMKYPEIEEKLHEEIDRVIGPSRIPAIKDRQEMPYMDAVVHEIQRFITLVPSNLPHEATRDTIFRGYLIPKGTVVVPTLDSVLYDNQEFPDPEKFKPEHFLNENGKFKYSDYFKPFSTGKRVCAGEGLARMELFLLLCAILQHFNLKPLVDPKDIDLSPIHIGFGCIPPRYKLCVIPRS

[2] = DRUGMATRIX: Calcium Channel Type L, Dihydropyridine radioligand binding (ligand: [3H] Nitrendipine); type: cell membranes, Rattus norvegicus, Wistar, Cerebral cortex, Membrane; conditions: Not Active = under 50% inhibition at 10 µM
Cannabinoid receptor 1 = Cannabinoid receptor 1 (Homo sapiens, UniProt P21554); type: cell membranes, Chem-1, Membrane; conditions: chem-1; note: in other assays of this panel Not Active means under 50% inhibition at 10 µM
Sequence of Cannabinoid receptor 1 (P21554 whole entry): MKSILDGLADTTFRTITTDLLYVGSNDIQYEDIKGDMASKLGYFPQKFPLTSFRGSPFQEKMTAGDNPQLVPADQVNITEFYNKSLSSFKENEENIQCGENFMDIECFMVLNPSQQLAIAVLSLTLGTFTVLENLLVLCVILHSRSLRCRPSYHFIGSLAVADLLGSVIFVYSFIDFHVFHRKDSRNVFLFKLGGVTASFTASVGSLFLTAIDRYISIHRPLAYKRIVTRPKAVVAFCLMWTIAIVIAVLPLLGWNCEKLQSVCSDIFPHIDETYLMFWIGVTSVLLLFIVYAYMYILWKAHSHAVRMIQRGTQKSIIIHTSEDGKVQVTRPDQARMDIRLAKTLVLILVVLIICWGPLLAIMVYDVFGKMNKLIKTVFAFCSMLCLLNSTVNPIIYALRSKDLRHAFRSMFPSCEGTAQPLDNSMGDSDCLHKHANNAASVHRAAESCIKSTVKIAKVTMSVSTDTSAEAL

[3] = biological target: T1, Vasoactive intestinal polypeptide receptor 1 (Homo sapiens, UniProt P32241); type: cell membranes, Membrane; conditions: ht-29; note: in other assays of this panel Not Active means under 50% inhibition at 10 µM
T1 sequence (P32241 whole entry): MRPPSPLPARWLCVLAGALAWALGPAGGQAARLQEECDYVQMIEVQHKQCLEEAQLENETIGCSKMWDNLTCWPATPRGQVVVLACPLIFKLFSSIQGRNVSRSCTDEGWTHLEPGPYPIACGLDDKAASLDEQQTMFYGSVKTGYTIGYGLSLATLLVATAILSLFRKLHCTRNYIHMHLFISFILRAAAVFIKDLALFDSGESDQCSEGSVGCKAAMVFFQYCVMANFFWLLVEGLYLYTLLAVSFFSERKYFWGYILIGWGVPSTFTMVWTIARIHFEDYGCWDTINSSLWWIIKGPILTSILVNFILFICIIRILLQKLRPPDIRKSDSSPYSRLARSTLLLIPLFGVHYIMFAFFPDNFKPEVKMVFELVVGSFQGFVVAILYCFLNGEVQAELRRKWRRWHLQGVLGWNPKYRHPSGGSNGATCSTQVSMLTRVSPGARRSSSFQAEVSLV

[4] = DRUGMATRIX: Atrial Natriuretic Factor (ANF) radioligand binding (ligand: [125I] ANF (rat)); type: cell membranes, Cavia porcellus, Dunkin-Hartley, Adrenal gland, Membrane; conditions: Not Active = under 50% inhibition at 10 µM
[5] = DRUGMATRIX: ATPase, Na+/K+ enzyme inhibition (substrate: ATP); type: tissue-based, Sus scrofa, Heart; conditions: Not Active = under 50% inhibition at 10 µM

Sequence of Acetylcholinesterase (P22303 whole entry): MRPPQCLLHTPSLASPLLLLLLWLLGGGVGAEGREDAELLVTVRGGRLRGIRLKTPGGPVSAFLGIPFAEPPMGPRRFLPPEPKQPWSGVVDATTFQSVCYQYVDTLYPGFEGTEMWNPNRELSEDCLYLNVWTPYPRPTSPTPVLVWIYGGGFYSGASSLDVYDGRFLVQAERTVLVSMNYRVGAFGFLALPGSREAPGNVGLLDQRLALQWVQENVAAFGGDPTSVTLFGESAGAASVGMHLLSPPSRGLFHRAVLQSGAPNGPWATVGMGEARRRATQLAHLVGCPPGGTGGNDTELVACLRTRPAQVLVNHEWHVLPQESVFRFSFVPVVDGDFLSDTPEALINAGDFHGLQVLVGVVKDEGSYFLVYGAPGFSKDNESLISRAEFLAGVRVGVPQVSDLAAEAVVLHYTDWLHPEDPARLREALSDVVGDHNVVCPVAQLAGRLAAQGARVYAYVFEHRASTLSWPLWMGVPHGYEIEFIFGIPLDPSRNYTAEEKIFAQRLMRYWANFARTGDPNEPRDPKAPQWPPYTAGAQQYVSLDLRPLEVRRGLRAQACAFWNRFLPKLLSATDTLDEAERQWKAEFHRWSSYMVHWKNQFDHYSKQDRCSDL

CC(=O)OC[C@H]1O[C@@H](n2ncc(=O)[nH]c2=O)[C@H](OC(C)=O)[C@@H]1OC(C)=O [AZARIBINE]
Not Active: IC50 (Acetylcholinesterase) | IC50 [1] | Ki [1] | IC50 (Cytochrome P450 2E1) | Ki (Cytochrome P450 2E1) | IC50 [2] | Ki [2] | IC50 (Cannabinoid receptor 1) | IC50 [3] | IC50 [4] | Ki [4] | IC50 [5] | Ki [5]

C[C@H]1[C@H](NC(=O)/C(=N\OC(C)(C)C(=O)O)c2csc(N)n2)C(=O)N1S(=O)(=O)O [AZTREONAM]
Not Active: IC50 (Acetylcholinesterase) | IC50 [1] | Ki [1] | IC50 (Cytochrome P450 2E1) | Ki (Cytochrome P450 2E1) | IC50 [2] | Ki [2] | IC50 (Cannabinoid receptor 1) | IC50 [3] | IC50 [4] | Ki [4] | IC50 [5] | Ki [5]

O=C(O)CCNC(=O)c1ccc(/N=N/c2ccc(O)c(C(=O)O)c2)cc1 [BALSALAZIDE]
Not Active: IC50 (Acetylcholinesterase) | IC50 [1] | Ki [1] | IC50 (Cytochrome P450 2E1) | Ki (Cytochrome P450 2E1) | IC50 [2] | Ki [2] | IC50 (Cannabinoid receptor 1) | IC50 [3] | IC50 [4] | Ki [4] | IC50 [5] | Ki [5]

COc1cc(OC)c(C(=O)CCCN2CCCC2)c(OC)c1 [BUFLOMEDIL]
Not Active: IC50 (Acetylcholinesterase) | IC50 [1] | Ki [1] | IC50 (Cytochrome P450 2E1) | Ki (Cytochrome P450 2E1) | IC50 [2] | Ki [2] | IC50 (Cannabinoid receptor 1) | IC50 [3] | IC50 [4] | Ki [4] | IC50 [5] | Ki [5]

Cn1c(=O)c2c(ncn2C)n(C)c1=O [CAFFEINE]
Not Active: IC50 (Acetylcholinesterase) | IC50 [1] | Ki [1] | IC50 (Cytochrome P450 2E1) | Ki (Cytochrome P450 2E1) | IC50 [2] | Ki [2] | IC50 (Cannabinoid receptor 1) | IC50 [3] | IC50 [4] | Ki [4] | IC50 [5] | Ki [5]

CO/N=C(\C(=O)N[C@@H]1C(=O)N2C(C(=O)O)=C(COC(C)=O)CS[C@H]12)c1csc(N)n1 [CEFOTAXIME]
Not Active: IC50 (Acetylcholinesterase) | IC50 [1] | Ki [1] | IC50 (Cytochrome P450 2E1) | Ki (Cytochrome P450 2E1) | IC50 [2] | Ki [2] | IC50 (Cannabinoid receptor 1) | IC50 [3] | IC50 [4] | Ki [4] | IC50 [5] | Ki [5]

CNC1=Nc2ccc(Cl)cc2C(c2ccccc2)=[N+]([O-])C1 [CHLORDIAZEPOXIDE]
Not Active: IC50 (Acetylcholinesterase) | IC50 [1] | Ki [1] | IC50 (Cytochrome P450 2E1) | Ki (Cytochrome P450 2E1) | IC50 [2] | Ki [2] | IC50 (Cannabinoid receptor 1) | IC50 [3] | IC50 [4] | Ki [4] | IC50 [5] | Ki [5]

Cc1cc(O)cc(C)c1Cl [CHLOROXYLENOL]
Not Active: IC50 (Acetylcholinesterase) | IC50 [1] | Ki [1] | IC50 (Cytochrome P450 2E1) | Ki (Cytochrome P450 2E1) | IC50 [2] | Ki [2] | IC50 (Cannabinoid receptor 1) | IC50 [3] | IC50 [4] | Ki [4] | IC50 [5] | Ki [5]

CCCNC(=O)NS(=O)(=O)c1ccc(Cl)cc1 [CHLORPROPAMIDE]
Not Active: IC50 (Acetylcholinesterase) | IC50 [1] | Ki [1] | IC50 (Cytochrome P450 2E1) | Ki (Cytochrome P450 2E1) | IC50 [2] | Ki [2] | IC50 (Cannabinoid receptor 1) | IC50 [3] | IC50 [4] | Ki [4] | IC50 [5] | Ki [5]

NS(=O)(=O)c1cc(C2(O)NC(=O)c3ccccc32)ccc1Cl (stereo not drawn) [CHLORTHALIDONE]
Not Active: IC50 (Acetylcholinesterase) | IC50 [1] | Ki [1] | IC50 (Cytochrome P450 2E1) | Ki (Cytochrome P450 2E1) | IC50 [2] | Ki [2] | IC50 (Cannabinoid receptor 1) | IC50 [3] | IC50 [4] | Ki [4] | IC50 [5] | Ki [5]

O=C(O)CC(O)(CC(=O)O)C(=O)O [CITRIC ACID]
Not Active: IC50 (Acetylcholinesterase) | IC50 [1] | Ki [1] | IC50 (Cytochrome P450 2E1) | Ki (Cytochrome P450 2E1) | IC50 [2] | Ki [2] | IC50 (Cannabinoid receptor 1) | IC50 [3] | IC50 [4] | Ki [4] | IC50 [5] | Ki [5]

CC(C)NCC(O)c1ccccc1Cl (stereo not drawn) [CLORPRENALINE]
Not Active: IC50 (Acetylcholinesterase) | IC50 [1] | Ki [1] | IC50 (Cytochrome P450 2E1) | Ki (Cytochrome P450 2E1) | IC50 [2] | Ki [2] | IC50 (Cannabinoid receptor 1) | IC50 [3] | IC50 [4] | Ki [4] | IC50 [5] | Ki [5]

CN1CCN(C(c2ccccc2)c2ccccc2)CC1 [CYCLIZINE]
Not Active: IC50 (Acetylcholinesterase) | IC50 [1] | Ki [1] | IC50 (Cytochrome P450 2E1) | Ki (Cytochrome P450 2E1) | IC50 [2] | Ki [2] | IC50 (Cannabinoid receptor 1) | IC50 [3] | IC50 [4] | Ki [4] | IC50 [5] | Ki [5]

CN1C[C@@H]2C[C@H]1CN2c1cc2c(cc1F)c(=O)c(C(=O)O)cn2C1CC1 [DANOFLOXACIN]
Not Active: IC50 (Acetylcholinesterase) | IC50 [1] | Ki [1] | IC50 (Cytochrome P450 2E1) | Ki (Cytochrome P450 2E1) | IC50 [2] | Ki [2] | IC50 (Cannabinoid receptor 1) | IC50 [3] | IC50 [4] | Ki [4] | IC50 [5] | Ki [5]

COc1cccc2c1C(=O)c1c(O)c3c(c(O)c1C2=O)C[C@@](O)(C(C)=O)C[C@@H]3O[C@H]1C[C@H](N)[C@H](O)[C@H](C)O1 [DAUNORUBICIN]
Not Active: IC50 (Acetylcholinesterase) | IC50 [1] | Ki [1] | IC50 (Cytochrome P450 2E1) | Ki (Cytochrome P450 2E1) | IC50 [2] | Ki [2] | IC50 (Cannabinoid receptor 1) | IC50 [3] | IC50 [4] | Ki [4] | IC50 [5] | Ki [5]

O=C(O)c1cc(-c2ccc(F)cc2F)ccc1O [DIFLUNISAL]
Not Active: IC50 (Acetylcholinesterase) | IC50 [1] | Ki [1] | IC50 (Cytochrome P450 2E1) | Ki (Cytochrome P450 2E1) | IC50 [2] | Ki [2] | IC50 (Cannabinoid receptor 1) | IC50 [3] | IC50 [4] | Ki [4] | IC50 [5] | Ki [5]

C[S+](C)[O-] [DIMETHYL SULFOXIDE]
Not Active: IC50 (Acetylcholinesterase) | IC50 [1] | Ki [1] | IC50 (Cytochrome P450 2E1) | Ki (Cytochrome P450 2E1) | IC50 [2] | Ki [2] | IC50 (Cannabinoid receptor 1) | IC50 [3] | IC50 [4] | Ki [4] | IC50 [5] | Ki [5]

CC1=NN(c2ccccc2)C(=O)C1 [EDARAVONE]
Not Active: IC50 (Acetylcholinesterase) | IC50 [1] | Ki [1] | IC50 (Cytochrome P450 2E1) | Ki (Cytochrome P450 2E1) | IC50 [2] | Ki [2] | IC50 (Cannabinoid receptor 1) | IC50 [3] | IC50 [4] | Ki [4] | IC50 [5] | Ki [5]

CC(C)C[C@H]1C(=O)N2CCC[C@H]2[C@]2(O)O[C@](NC(=O)[C@@H]3C=C4c5cccc6[nH]cc(c56)C[C@H]4N(C)C3)(C(C)C)C(=O)N12 [ERGOCRYPTINE]
Not Active: IC50 (Acetylcholinesterase) | IC50 [1] | Ki [1] | IC50 (Cytochrome P450 2E1) | Ki (Cytochrome P450 2E1) | IC50 [2] | Ki [2] | IC50 (Cannabinoid receptor 1) | IC50 [3] | IC50 [4] | Ki [4] | IC50 [5] | Ki [5]

C[C@]12CC[C@@H]3c4ccc(O)cc4CC[C@H]3[C@@H]1C[C@@H](O)[C@@H]2O [ESTRIOL]
Not Active: IC50 (Acetylcholinesterase) | IC50 [1] | Ki [1] | IC50 (Cytochrome P450 2E1) | Ki (Cytochrome P450 2E1) | IC50 [2] | Ki [2] | IC50 (Cannabinoid receptor 1) | IC50 [3] | IC50 [4] | Ki [4] | IC50 [5] | Ki [5]

C#C[C@]1(O)CC[C@H]2[C@@H]3CCC4=CC(=O)CC[C@]4(C)[C@H]3CC[C@@]21C [ETHISTERONE]
Not Active: IC50 (Acetylcholinesterase) | IC50 [1] | Ki [1] | IC50 (Cytochrome P450 2E1) | Ki (Cytochrome P450 2E1) | IC50 [2] | Ki [2] | IC50 (Cannabinoid receptor 1) | IC50 [3] | IC50 [4] | Ki [4] | IC50 [5] | Ki [5]
